Results published in patent US20090214529A9, “KINESIN INHIBITORS” (TaiGen Biotechnology Co., Ltd., priority 2007, published 2009).

Legend:
[1] = test system: human colon cancer cell line (Colo205) xenograft; assay: In vivo tumor growth inhibition assay, nude mice s.c. implanted tumor model
Procedure: The human colon cancer cell line (Colo205) obtained from the American Type Culture Collection (Rockville, Md.) was used for the xenograft model. The cell line was maintained in growth medium supplemented with L-glutamine, ribonucleosides, deoxyribonucleosides, 10% FCS, and the following antimicrobial agents: 100 IU/ml penicillin, […] streptomycin, and […] amphotericin B. Cultures were established in 75-cm^2 flasks (Costar, Cambridge, Mass.), maintained at 37° C. in a humidified atmosphere with 5% CO2 in air, and subcultured every 4˜7 days with 0.25% trypsin in HBSS (Invitrogen Life Technologies, Carlsbad, Calif.). For in vivo tumor growth, cells (1×10^7) suspended in 100 μl of PBS were inoculated in the flanks of 5-week-old female athymic BALB/cAnNCij-nu/nu mice (Charles River, Kanagawa, Japan). Seven days after inoculation (day 7), mice with tumors measuring 6-7 mm in diameter were randomly separated into 3 groups with five mice in each group. Compound 36 was dissolved in a vehicle (10% 40 mM sodium citrate, 5% Tween-80, 5% ethanol in saline) and intraperitoneally administered respectively to the groups of mice at the selected dose levels with the selected dosing regimen. A vehicle was administered to the third group of mice. Tumor size was measured twice weekly until day 30. Tumor volume (TV) was calculated as follows: volume=[length (mm)×width (mm)^2]×0.52. The tumor growth for each group was expressed by the median values of the ratio between the tumor volume measured at a specific day to the initial tumor volume measured at the day of first dosing.

tumor cell = assay: Cytotoxicity assay (MTS); type: cell-based; details: 72 h; incubation for three days; read-out: IC50, tumor cell growth inhibition (MTS)
How it was run: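 Tumour cells seeded overnight, then exposed to varying compound concentrations for three days. Viability read by MTS/PMS conversion to formazan (2 h, 37 °C, absorbance 490 nm). Results given as blank-corrected T/C (%) against vehicle controls.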

Human Colo205 cells = assay: Cell cycle arrest assay (flowcytometry, propidium iodide); type: cell-based; details: DNA content by flowcytometry
Procedure: The efficacy of a test compound to arrest cells as a KSP inhibitor was determined by flowcytometry analysis. Human Colo205 cells were grown in 6-well plates and treated the next day with the test compound for various time lengths. They were then scraped from plates using a rubber policeman, washed with PBS, and centrifuged at 1,000 rpm for 5 minutes. 1 ML of a buffer containing 10 μM of propidium iodide and 50 ug/ml of RNase A was used to re-suspend the cells. The cells were subsequently incubated in this buffer for 10 minutes at room temperature in the dark, passed through a filter to remove cell clumps, and observed under a Coulter Epics XL-MCL Training Modules flowcytometer.

Structure (SMILES) | IC50 (tumor cell) [µM] | further results
Cc1ccc(C(=O)N(CCN)C(c2nc3c(oc4ccc(Cl)cc43)c(=O)n2Cc2ccccc2)C(C)C)cc1 (centres unmarked) [Compound 36] | < 30 | tumor growth inhibition (in words) ([1]; 40 mg/Kg and 30 mg/Kg, intraperitoneal, q2dx5, Colo205 xenograft): significant tumor growth inhibition; tumor growth inhibition at day 10 ([1]; 40 mg/Kg and 30 mg/Kg, intraperitoneal, q2dx5, day 10): more than 83%; tumor growth inhibition at day 13 ([1]; 40 mg/Kg and 30 mg/Kg, intraperitoneal, q2dx5, day 13): more than 90%; tumor growth inhibition at day 16 ([1]; 40 mg/Kg and 30 mg/Kg, intraperitoneal, q2dx5, day 16): more than 92%; tumor inhibition, higher dose versus lower dose ([1]; 40 mg/Kg compared with 30 mg/Kg, q2dx5): stronger tumor inhibition
Cc1ccc(C(=O)N(CCN)C(c2nc3c(oc4ccc(F)cc43)c(=O)n2Cc2ccccc2)C(C)C)cc1 (centres unmarked) [Compound 62] | – | shift in cell cycle population (Human Colo205 cells): shift in the population of cells from a G0/G1 stage (2N DNA content) to a G2/M stage (4N DNA content)
Cc1ccc(C(=O)N(CCN)C(c2nc3c(oc4ccc(F)cc43)c(=O)n2Cc2ccc(Br)s2)C(C)C)cc1 (centres unmarked) [Compound 66] | < 30 | shift in cell cycle population (Human Colo205 cells): shift in the population of cells from a G0/G1 stage (2N DNA content) to a G2/M stage (4N DNA content)
Cc1ccc(C(=O)N(CCN)C(c2nc3c(oc4ccc(F)cc43)c(=O)n2Cc2ccc(Br)o2)C(C)C)cc1 (centres unmarked) [Compound 81] | < 30 | shift in cell cycle population (Human Colo205 cells): shift in the population of cells from a G0/G1 stage (2N DNA content) to a G2/M stage (4N DNA content)
Cc1ccc(C(=O)N(CCN)C(c2nc3c(oc4ccc(F)cc43)c(=O)n2Cc2ccc(C#N)s2)C(C)C)cc1 (centres unmarked) [Compound 83] | < 30 | shift in cell cycle population (Human Colo205 cells): shift in the population of cells from a G0/G1 stage (2N DNA content) to a G2/M stage (4N DNA content)
Cc1ccc(C(=O)N(CCN)C(c2nc3c(oc4ccc(F)cc43)c(=O)n2Cc2cc(C)cs2)C(C)C)cc1 (centres unmarked) [Compound 84] | < 30 | shift in cell cycle population (Human Colo205 cells): shift in the population of cells from a G0/G1 stage (2N DNA content) to a G2/M stage (4N DNA content); tumor growth inhibition at day 20 ([1]; 60 mg/Kg, q3dx3, day 20): more than 90%
Cc1ccc(C(=O)N(CCN)C(c2nc3c(oc4ccc(F)cc43)c(=O)n2Cc2ccc(C(F)(F)F)o2)C(C)C)cc1 (centres unmarked) [Compound 86] | < 30 | shift in cell cycle population (Human Colo205 cells): shift in the population of cells from a G0/G1 stage (2N DNA content) to a G2/M stage (4N DNA content)
Cc1csc(Cn2c(C(C(C)C)N(CCN)C(=O)c3ccc(C)c(F)c3)nc3c(oc4ccc(F)cc43)c2=O)c1 (centres unmarked) [Compound 168] | < 30 | shift in cell cycle population (Human Colo205 cells): shift in the population of cells from a G0/G1 stage (2N DNA content) to a G2/M stage (4N DNA content)
Cc1ccc(C(=O)N(CCN)[C@@H](c2nc3c(oc4ccc(F)cc43)c(=O)n2Cc2ccc(Br)o2)C(C)C)cc1 [Compound 177] | < 30 | shift in cell cycle population (Human Colo205 cells): shift in the population of cells from a G0/G1 stage (2N DNA content) to a G2/M stage (4N DNA content)
Cc1ccc(C(=O)N(CCN)[C@@H](c2nc3c(oc4ccc(F)cc43)c(=O)n2Cc2ccsc2)C(C)C)cc1F [Compound 195] | < 30 | –
Cc1ccc(C(=O)N(CCN)[C@@H](c2nc3c(oc4ccc(F)cc43)c(=O)n2Cc2ccoc2)C(C)C)cc1 [Compound 196] | < 30 | –
Cc1ccc(C(=O)N(CCN)[C@@H](c2nc3c(oc4ccc(F)cc43)c(=O)n2Cc2ccoc2)C(C)C)cc1F [Compound 197] | < 30 | –
CC(C)[C@H](c1nc2c(oc3ccc(F)cc32)c(=O)n1Cc1ccoc1)N(CCN)C(=O)c1ccc(Cl)cc1 [Compound 198] | < 30 | –
Cc1ccc(C(=O)N(CCN)[C@@H](c2nc3c(oc4ccc(F)cc43)c(=O)n2Cc2cccs2)C(C)C)cc1 [Compound 199] | < 30 | –
Cc1ccc(C(=O)N(CCN)[C@@H](c2nc3c(oc4ccc(F)cc43)c(=O)n2Cc2cccs2)C(C)C)cc1F [Compound 200] | < 30 | –
CC(C)[C@H](c1nc2c(oc3ccc(F)cc32)c(=O)n1Cc1cccs1)N(CCN)C(=O)c1ccc(Br)cc1 [Compound 201] | < 30 | –
CC(C)[C@H](c1nc2c(oc3ccc(F)cc32)c(=O)n1Cc1ccsc1)N(CCN)C(=O)c1ccc(Br)cc1 [Compound 202] | < 30 | –
CC(C)[C@H](c1nc2c(oc3ccc(F)cc32)c(=O)n1Cc1cccc(F)c1)N(CCN)C(=O)c1ccc(Br)cc1 [Compound 203] | < 30 | –
CC(C)[C@H](c1nc2c(oc3ccc(F)cc32)c(=O)n1Cc1ccc(Cl)o1)N(CCN)C(=O)c1ccc(Br)cc1 [Compound 204] | < 30 | –

Structure (SMILES) | IC50 (tumor cell) [µM] | further results
CC(C)[C@H](c1nc2c(oc3ccc(F)cc32)c(=O)n1Cc1ccccc1)N(CCN)C(=O)c1ccc(Br)cc1 [Compound 205] | < 30 | –
Cc1ccc(C(=O)N(CCN)[C@@H](c2nc3c(oc4ccc(F)cc43)c(=O)n2Cc2ccccc2)C(C)C)c(F)c1F [Compound 206] | < 30 | –
CC(C)[C@H](c1nc2c(oc3ccc(F)cc32)c(=O)n1Cc1ccccc1)N(CCN)C(=O)c1ccc(C(F)(F)F)cc1 [Compound 207] | < 30 | –
Cc1ccc(C(=O)N(CCN)[C@@H](c2nc3c(oc4ccc(F)cc43)c(=O)n2Cc2ccc(Br)s2)C(C)C)c(F)c1F [Compound 209] | < 30 | –
CC(C)[C@H](c1nc2c(oc3ccc(F)cc32)c(=O)n1Cc1ccc(Br)s1)N(CCN)C(=O)c1ccc(Br)cc1 [Compound 210] | < 30 | –
Cc1ccc(C(=O)N(CCCN)[C@@H](c2nc3c(oc4ccc(F)cc43)c(=O)n2Cc2cc(C)cs2)C(C)C)cc1 [Compound 211] | < 30 | –
Cc1ccc(C(=O)N(CCN)[C@@H](c2nc3c(oc4ccc(F)cc43)c(=O)n2Cc2ccc(C(F)(F)F)o2)C(C)C)cc1 [Compound 213] | < 30 | –
Cc1ccc(C(=O)N(CCN)[C@@H](c2nc3c(oc4ccc(F)cc43)c(=O)n2Cc2ccc(C(F)(F)F)o2)C(C)C)cc1F [Compound 214] | < 30 | –
Cc1ccc(C(=O)N(CCN)[C@@H](c2nc3c(oc4ccc(F)cc43)c(=O)n2Cc2cc(Br)cs2)C(C)C)cc1 [Compound 215] | < 30 | –
Cc1ccc(C(=O)N(CCN)[C@@H](c2nc3c(oc4ccc(F)cc43)c(=O)n2Cc2cc(Br)co2)C(C)C)cc1 [Compound 217] | < 30 | –
Cc1ccc(C(=O)N(CCN)[C@@H](c2nc3c(oc4ccc(F)cc43)c(=O)n2Cc2cc(Br)co2)C(C)C)cc1F [Compound 218] | < 30 | –
Cc1ccc(C(=O)N(CCN)[C@@H](c2nc3c(oc4ccc(F)cc43)c(=O)n2Cc2ccc(I)s2)C(C)C)cc1 [Compound 219] | < 30 | –
CC[C@@H](C)[C@H](c1nc2c(oc3ccc(F)cc32)c(=O)n1Cc1ccc(Br)o1)N(CCN)C(=O)c1ccc(C)cc1 [Compound 220] | < 30 | –
Cc1ccc(C(=O)N(CCN)[C@@H](c2nc3c(oc4ccc(F)cc43)c(=O)n2Cc2cc(C)cs2)C2CC2)cc1 [Compound 222] | < 30 | –
Cc1ccc(C(=O)N(CCN)[C@@H](c2nc3c(oc4ccc(F)cc43)c(=O)n2Cc2ccc(Br)o2)C2CC2)cc1 [Compound 223] | < 30 | –
Cc1ccc(C(=O)N(CCN)[C@@H](c2nc3c(oc4ccc(F)cc43)c(=O)n2Cc2ccc(Cl)o2)C2CC2)cc1 [Compound 224] | < 30 | –
Cc1ccc(C(=O)N(CCN)[C@@H](c2nc3c(oc4ccc(F)cc43)c(=O)n2Cc2ccccc2)C2CC2)cc1 [Compound 225] | < 30 | –
Cc1ccc(C(=O)N(CCN)[C@@H](c2nc3c(oc4ccc(F)cc43)c(=O)n2Cc2cccs2)C2CC2)cc1 [Compound 226] | < 30 | –
